For orientation: Papp B→A means the apparent permeability from the basolateral to the apical side of a cell layer. What is called Papp A→B is the apparent permeability from the apical to the basolateral side of a cell layer. Usually IC50 stands for the concentration that gives 50% inhibition. Higher therefore signals lower potency.

Data set [1] is described as follows: Apparent permeability across basolateral to apical side in human Caco2 cells at 10 uM after 2 hrs by LC-MS/MS analysis. Format: ADME, cell-based. As to conditions: Caco-2. (In general: Passage across Caco-2 layers is used to estimate intestinal permeability.)
Data set [2] is described as follows: Apparent permeability across apical to basolateral side in human Caco2 cells at 10 uM after 2 hrs by LC-MS/MS analysis. As to conditions: Caco-2; call rule not given here. The format is ADME, cell-based.
The nature of data set [3]: Inhibition of CYP450 (unknown origin). Format: ADME. As to conditions: human.
In data set [4] the target is T1, ATPase family AAA domain-containing protein 2 (Homo sapiens, UniProt Q6PL18).
T1 sequence (Q6PL18 whole entry): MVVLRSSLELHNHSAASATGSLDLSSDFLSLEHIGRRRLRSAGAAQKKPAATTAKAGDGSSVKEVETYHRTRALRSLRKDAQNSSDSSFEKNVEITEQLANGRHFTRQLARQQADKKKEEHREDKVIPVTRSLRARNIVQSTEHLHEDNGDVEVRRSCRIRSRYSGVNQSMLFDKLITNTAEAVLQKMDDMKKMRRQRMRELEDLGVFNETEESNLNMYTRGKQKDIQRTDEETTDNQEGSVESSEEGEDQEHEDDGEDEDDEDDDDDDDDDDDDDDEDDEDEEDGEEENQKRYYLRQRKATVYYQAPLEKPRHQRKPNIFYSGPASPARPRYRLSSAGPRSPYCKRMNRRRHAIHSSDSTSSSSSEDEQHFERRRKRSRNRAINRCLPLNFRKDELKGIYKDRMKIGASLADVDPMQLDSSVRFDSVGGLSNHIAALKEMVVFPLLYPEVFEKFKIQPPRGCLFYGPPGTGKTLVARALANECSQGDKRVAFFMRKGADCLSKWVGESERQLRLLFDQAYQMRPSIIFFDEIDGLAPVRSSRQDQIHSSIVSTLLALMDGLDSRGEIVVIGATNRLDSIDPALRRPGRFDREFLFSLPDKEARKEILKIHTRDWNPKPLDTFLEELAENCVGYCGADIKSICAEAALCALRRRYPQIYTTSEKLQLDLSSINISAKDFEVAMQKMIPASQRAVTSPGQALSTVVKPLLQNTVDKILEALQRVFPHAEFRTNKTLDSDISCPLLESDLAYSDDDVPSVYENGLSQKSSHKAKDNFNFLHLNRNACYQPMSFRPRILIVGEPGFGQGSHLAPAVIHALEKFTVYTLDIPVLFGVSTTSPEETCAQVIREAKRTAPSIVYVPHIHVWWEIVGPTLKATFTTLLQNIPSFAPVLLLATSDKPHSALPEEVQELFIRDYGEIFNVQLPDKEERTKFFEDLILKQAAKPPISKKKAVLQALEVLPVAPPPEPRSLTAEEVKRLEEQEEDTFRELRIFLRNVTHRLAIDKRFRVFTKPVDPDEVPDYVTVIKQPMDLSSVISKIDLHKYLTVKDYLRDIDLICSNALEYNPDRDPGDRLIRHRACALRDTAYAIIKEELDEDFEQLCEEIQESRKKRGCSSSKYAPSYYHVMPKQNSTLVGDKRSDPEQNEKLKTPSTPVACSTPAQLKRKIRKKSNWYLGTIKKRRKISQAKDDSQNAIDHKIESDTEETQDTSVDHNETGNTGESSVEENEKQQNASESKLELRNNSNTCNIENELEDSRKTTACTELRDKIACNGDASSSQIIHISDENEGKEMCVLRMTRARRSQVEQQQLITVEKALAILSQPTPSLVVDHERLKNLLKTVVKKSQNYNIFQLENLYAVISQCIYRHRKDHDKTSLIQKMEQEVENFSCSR
The experiment in a line: Inhibition of human ATAD2A (981 to 1108 residues) expressed in Escherichia coli BL21 after 1 hr by BROMOscan assay.

For data set [5], the target named is T2, ATPase family AAA domain-containing protein 2B (Homo sapiens, UniProt Q9ULI0).
T2 sequence (Q9ULI0 whole entry): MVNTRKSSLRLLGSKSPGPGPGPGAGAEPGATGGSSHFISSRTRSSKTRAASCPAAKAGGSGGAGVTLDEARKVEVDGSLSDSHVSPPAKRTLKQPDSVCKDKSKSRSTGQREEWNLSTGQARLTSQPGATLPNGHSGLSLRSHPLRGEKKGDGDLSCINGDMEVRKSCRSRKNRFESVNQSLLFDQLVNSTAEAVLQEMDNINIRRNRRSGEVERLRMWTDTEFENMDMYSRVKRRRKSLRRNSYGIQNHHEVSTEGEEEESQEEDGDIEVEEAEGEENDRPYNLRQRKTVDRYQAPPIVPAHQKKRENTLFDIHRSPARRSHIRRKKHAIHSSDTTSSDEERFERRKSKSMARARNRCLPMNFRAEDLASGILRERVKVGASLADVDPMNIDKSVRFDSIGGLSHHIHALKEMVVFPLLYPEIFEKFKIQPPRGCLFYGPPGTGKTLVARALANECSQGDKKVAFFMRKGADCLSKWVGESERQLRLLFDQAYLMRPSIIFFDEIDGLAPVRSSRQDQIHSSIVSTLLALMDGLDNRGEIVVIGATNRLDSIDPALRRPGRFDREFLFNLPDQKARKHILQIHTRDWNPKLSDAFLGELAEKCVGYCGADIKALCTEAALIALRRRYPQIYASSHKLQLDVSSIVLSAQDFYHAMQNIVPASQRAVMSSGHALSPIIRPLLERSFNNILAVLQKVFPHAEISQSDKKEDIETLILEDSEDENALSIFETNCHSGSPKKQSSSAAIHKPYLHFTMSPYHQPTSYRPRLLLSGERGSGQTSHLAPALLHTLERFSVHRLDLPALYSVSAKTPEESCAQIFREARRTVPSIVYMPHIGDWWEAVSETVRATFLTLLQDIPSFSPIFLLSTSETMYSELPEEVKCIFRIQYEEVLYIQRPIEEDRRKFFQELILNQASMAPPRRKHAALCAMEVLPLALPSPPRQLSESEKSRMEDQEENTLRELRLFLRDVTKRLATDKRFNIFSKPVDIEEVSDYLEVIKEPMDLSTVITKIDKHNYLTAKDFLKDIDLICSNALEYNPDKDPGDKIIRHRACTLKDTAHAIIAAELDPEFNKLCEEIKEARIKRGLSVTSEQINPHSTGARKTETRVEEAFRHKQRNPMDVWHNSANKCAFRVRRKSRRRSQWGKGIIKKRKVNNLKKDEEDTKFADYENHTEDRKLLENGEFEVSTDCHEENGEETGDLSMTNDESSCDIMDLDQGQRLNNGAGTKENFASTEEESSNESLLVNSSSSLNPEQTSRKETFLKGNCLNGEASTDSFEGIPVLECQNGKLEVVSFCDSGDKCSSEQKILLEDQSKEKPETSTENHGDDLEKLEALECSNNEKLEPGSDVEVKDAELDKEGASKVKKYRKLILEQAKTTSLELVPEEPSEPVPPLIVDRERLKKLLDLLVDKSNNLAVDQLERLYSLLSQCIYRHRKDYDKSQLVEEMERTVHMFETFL
The experiment in a line: Inhibition of human ATAD2B (955 to 1082 residues) expressed in Escherichia coli BL21 after 1 hr by BROMOscan assay.

As for `COc1cc(C#N)ccc1S(=O)(=O)Nc1ccc2c(c1)cc(C)c(=O)n2C`, the Papp B→A at 2 h, 10 µM in data set [1] came to 52 ×10⁻⁶ cm/s. In addition, the Papp A→B at 2 h, 10 µM in data set [2] turned out to be 11 ×10⁻⁶ cm/s. For the same molecule, the “inhibition (INH)” value in data set [3] is given as “Not Active”. In addition, the IC50 in data set [4] and in data set [5] was > 100 µM in each case.

The values above are taken from ChEMBL document CHEMBL4028852, “Design of a Chemical Probe for the Bromodomain and Plant Homeodomain Finger-Containing (BRPF) Family of Proteins” (J Med Chem, 2017).
